Measured values as given in ChEMBL document CHEMBL1151449, “In vitro activity of DC-159a, a new broad-spectrum fluoroquinolone, compared with that of other agents against drug-susceptible and -resistant pneumococci” (2008).
Converted amounts (≈) assume the structure as drawn.

Key:
Assay type in all cases: functional
Streptococcus pneumoniae [1] = assay: Antibacterial activity against penicillin- and quinolone-susceptible Streptococcus pneumoniae HMC 5055 expressing mefA by broth microdilution method
Streptococcus pneumoniae [2] = assay: (§1) Antibacterial activity against penicillin-resistant and quinolone-susceptible Streptococcus pneumoniae HMC 3583 expressing mefA and harboring S81F mutation in quinolone-resistant determining regions of GyrA gene, D83N mutation in QRDR of ParC gene and I460V mutation in QRDR of ParE gene after 44 passages with levofloxacin measured after 10 daily antibiotic-free subculturing by multi-step resistance selection technique
Streptococcus pneumoniae [3] = assay: (§2) Antibacterial activity against Streptococcus pneumoniae HMC 1076 harboring S81F mutation in quinolone-resistant determining regions of GyrA gene, D83N mutation in QRDR of ParC gene and I460V mutation in QRDR of ParE gene by agar dilution method
Streptococcus pneumoniae [4] = assay: Antibacterial activity against Streptococcus pneumoniae HMC 1156 harboring S81F and S79F mutation in quinolone-resistant determining regions of GyrA and ParC genes respectively showing efflux to ciprofloxacin, gemifloxacin by agar dilution method
Streptococcus pneumoniae [5] = assay: Antibacterial activity against Streptococcus pneumoniae HMC 1149 harboring S81F and S79Y mutation in quinolone-resistant determining regions of GyrA and ParC genes respectively showing efflux to ciprofloxacin, gemifloxacin by agar dilution method
Streptococcus pneumoniae [6] = assay: Antibacterial activity against quinolone-susceptible and penicillin-intermediate Streptococcus pneumoniae HMC 5048 expressing mefA by broth microdilution method
Streptococcus pneumoniae [7] = assay: as §2, with “against penicillin-, macrolide-susceptible and quinolone-resistant” for “against”, “1074” for “1076”, “S79F” for “D83N”, “broth microdilution” for “agar dilution”
Streptococcus pneumoniae [8] = assay: Antibacterial activity against Streptococcus pneumoniae HMC 1151 harboring D83N, K137N mutation in quinolone-resistant determining regions of ParC gene and I460V mutation in QRDR of ParE gene showing efflux to ciprofloxacin, gemifloxacin by agar dilution method
Streptococcus pneumoniae [9] = assay: Antibacterial activity against penicillin-, quinolone-resistant Streptococcus pneumoniae HMC 1541 harboring mutation in L4 protein by broth microdilution method
Streptococcus pneumoniae [10] = assay: (§3) Antibacterial activity against macrolide-, quinolone-susceptible and penicillin-intermediate Streptococcus pneumoniae HMC 100 harboring S81Y mutation in quinolone-resistant determining regions of GyrA gene after 22 passages with moxifloxacin measured after 10 daily antibiotic-free subculturing by multi-step resistance selection technique
Streptococcus pneumoniae [11] = assay: Antibacterial activity against Streptococcus pneumoniae HMC 2527 harboring S81Y mutation in quinolone-resistant determining regions of GyrA gene, S79F, K137N mutation in QRDR of ParC gene and I460V mutation in QRDR of ParE gene by agar dilution method
Streptococcus pneumoniae [12] = assay: Antibacterial activity against Streptococcus pneumoniae HMC 1058 harboring S79F, K137N mutation in quinolone-resistant determining regions of ParC gene and 460V mutation in QRDR of ParE gene by agar dilution method
Streptococcus pneumoniae [13] = assay: Antibacterial activity against Streptococcus pneumoniae HMC 1055 harboring S81F mutation in quinolone-resistant determining regions of GyrA gene, S79F, K137N mutation in QRDR of ParC gene and I460V mutation in QRDR of ParE gene by agar dilution method
Streptococcus pneumoniae [14] = assay: Antibacterial activity against Streptococcus pneumoniae HMC 5041 harboring S81F and S79F mutation in quinolone-resistant determining regions of GyrA and ParC genes respectively by agar dilution method
Streptococcus pneumoniae [15] = assay: Antibacterial activity against penicillin-, quinolone-resistant and macrolide-susceptible Streptococcus pneumoniae HMC 1058 harboring S79F, K137N mutation in quinolone-resistant determining regions of ParC gene and 460V mutation in QRDR of ParE gene by broth microdilution method
Streptococcus pneumoniae [16] = assay: Antibacterial activity against penicillin-, macrolide- and quinolone-susceptible Streptococcus pneumoniae HMC 63 after 50 passages by broth microdilution method
Streptococcus pneumoniae [17] = assay: as §1, with “GyrA” for “GyrA gene, D83N mutation in QRDR of ParC”, “I460V, D435N” for “I460V”, “46” for “44”, “gatifloxacin” for “levofloxacin”
Streptococcus pneumoniae [18] = assay: Antibacterial activity against penicillin-susceptible Streptococcus pneumoniae ATCC 49619 by agar dilution method
Streptococcus pneumoniae [19] = assay: as §1, with “49” for “44”, “DC-159a” for “levofloxacin”
Streptococcus pneumoniae [20] = assay: Antibacterial activity against Streptococcus pneumoniae HMC 2538 harboring S81Y mutation in quinolone-resistant determining regions of GyrA gene, S79F, K137N mutation in QRDR of ParC gene and I460V mutation in QRDR of ParE gene showing efflux to ciprofloxacin, levofloxacin, gatifloxacin by agar dilution method
Streptococcus pneumoniae [21] = assay: Antibacterial activity against Streptococcus pneumoniae HMC 1146 harboring S81F mutation in quinolone-resistant determining regions of GyrA gene, and D435N mutation in QRDR of ParE gene by agar dilution method
Streptococcus pneumoniae [22] = assay: Antibacterial activity against macrolide-, quinolone-susceptible and penicillin-intermediate Streptococcus pneumoniae HMC 99 after 50 passages by broth microdilution method
Streptococcus pneumoniae [23] = assay: Antibacterial activity against quinolone-susceptible Streptococcus pneumoniae ATCC 49619 by agar dilution method
Streptococcus pneumoniae [24] = assay: as §3, with “S79Y” for “S81Y”, “ParC” for “GyrA”, “34” for “22”, “gemifloxacin” for “moxifloxacin”
Streptococcus pneumoniae [25] = assay: Antibacterial activity against Streptococcus pneumoniae HMC 1150 harboring S81C mutation in quinolone-resistant determining regions of GyrA gene, S79F mutation in QRDR of ParC gene and I460V mutation in QRDR of ParE gene by agar dilution method
Streptococcus pneumoniae [26] = assay: Antibacterial activity against penicillin-intermediate Streptococcus pneumoniae […] by agar dilution method
Streptococcus pneumoniae [27] = assay: Antibacterial activity against macrolide-, quinolone-susceptible and penicillin-intermediate Streptococcus pneumoniae HMC 99 by broth microdilution method
Streptococcus pneumoniae [28] = assay: Antibacterial activity against Streptococcus pneumoniae HMC 1541 harboring S81Y mutation in quinolone-resistant determining regions of GyrA gene, S79F, K137N mutation in QRDR of ParC gene and I460V mutation in QRDR of ParE gene by agar dilution method
Streptococcus pneumoniae [29] = assay: Antibacterial activity against Streptococcus pneumoniae HMC 4026 harboring S81Y mutation in quinolone-resistant determining regions of GyrA gene, S79F, K137N mutation in QRDR of ParC gene and I460V mutation in QRDR of ParE gene by agar dilution method
Streptococcus pneumoniae [30] = assay: (§4) Antibacterial activity against penicillin-susceptible, quinolone-resistant Streptococcus pneumoniae 1072 expressing ermB and harboring S81F mutation in quinolone-resistant determining regions of GyrA gene, S79Y mutation in QRDR of ParC gene and I460V mutation in QRDR of ParE gene by broth microdilution method
Streptococcus pneumoniae [31] = assay: as §4, with “Streptococcus pneumoniae HMC 1072 expressing” for “Streptococcus pneumoniae 1072 expressing”, “ParE gene after 50 passages by broth” for “ParE gene by broth”
Streptococcus pneumoniae [32] = assay: Antibacterial activity against penicillin-resistant and quinolone-susceptible Streptococcus pneumoniae HMC 3583 expressing mefA by broth microdilution method

Row | SMILES | MIC (Streptococcus pneumoniae [1]) | MIC (Streptococcus pneumoniae [2]) | MIC (Streptococcus pneumoniae [3]) | MIC (Streptococcus pneumoniae [4]) | MIC (Streptococcus pneumoniae [5]) | MIC (Streptococcus pneumoniae [6]) | MIC (Streptococcus pneumoniae [7]) | MIC (Streptococcus pneumoniae [8]) | MIC (Streptococcus pneumoniae [9]) | MIC (Streptococcus pneumoniae [10]) | MIC (Streptococcus pneumoniae [11]) | MIC (Streptococcus pneumoniae [12]) | MIC (Streptococcus pneumoniae [13]) | MIC (Streptococcus pneumoniae [14]) | MIC (Streptococcus pneumoniae [15]) | MIC (Streptococcus pneumoniae [16]) | MIC (Streptococcus pneumoniae [17]) | MIC50 (Streptococcus pneumoniae [18]) | MIC90 (Streptococcus pneumoniae [18]) | MIC (Streptococcus pneumoniae [19]) | further results
1 | COc1c(N2CC3(CC3)[C@](C)(N)C2)c(F)cc2c(=O)c(C(=O)O)cn([C@@H]3C[C@@H]3F)c12.O | 0.12 µg/mL | 1 µg/mL | 0.5 µg/mL | 1 µg/mL | 0.25 µg/mL | 0.12 µg/mL | 1 µg/mL | 0.25 µg/mL | 1 µg/mL | 0.5 µg/mL | 1 µg/mL | 0.5 µg/mL | 1 µg/mL | 1 µg/mL | 0.5 µg/mL | 0.125 µg/mL | 1 µg/mL | 0.12 µg/mL | 0.25 µg/mL | 1 µg/mL | MIC (Streptococcus pneumoniae [20]): 1 µg/mL; MIC (Streptococcus pneumoniae [21]): 1 µg/mL; MIC (Streptococcus pneumoniae [22]): 0.125 µg/mL; MIC50 (Streptococcus pneumoniae [23]): 0.12 µg/mL; MIC90 (Streptococcus pneumoniae [23]): 0.12 µg/mL; MIC (Streptococcus pneumoniae [24]): 0.5 µg/mL; MIC (Streptococcus pneumoniae [25]): 0.5 µg/mL; MIC50 (Streptococcus pneumoniae [26]): 0.12 µg/mL; MIC90 (Streptococcus pneumoniae [26]): 0.12 µg/mL; MIC (Streptococcus pneumoniae [27]): 0.12 µg/mL; MIC (Streptococcus pneumoniae [28]): 0.5 µg/mL; MIC (Streptococcus pneumoniae [29]): 1 µg/mL; MIC (Streptococcus pneumoniae [30]): 1 µg/mL; MIC (Streptococcus pneumoniae [31]): 1 µg/mL; MIC (Streptococcus pneumoniae [32]): 0.12 µg/mL
2 | COc1c(N2CCNC(C)C2)c(F)cc2c(=O)c(C(=O)O)cn(C3CC3)c12 (stereo not given) [GATIFLOXACIN] | 0.25 µg/mL (≈ 0.666 µM) | 4 µg/mL (≈ 10.7 µM) | 4 µg/mL (≈ 10.7 µM) | 8 µg/mL (≈ 21.3 µM) | 1 µg/mL (≈ 2.66 µM) | 0.25 µg/mL (≈ 0.666 µM) | 4 µg/mL (≈ 10.7 µM) | 2 µg/mL (≈ 5.33 µM) | 4 µg/mL (≈ 10.7 µM) | 4 µg/mL (≈ 10.7 µM) | 16 µg/mL (≈ 42.6 µM) | 2 µg/mL (≈ 5.33 µM) | 8 µg/mL (≈ 21.3 µM) | 4 µg/mL (≈ 10.7 µM) | 4 µg/mL (≈ 10.7 µM) | 1 µg/mL (≈ 2.66 µM) | 8 µg/mL (≈ 21.3 µM) | 0.5 µg/mL (≈ 1.33 µM) | 1 µg/mL (≈ 2.66 µM) | 4 µg/mL (≈ 10.7 µM) | MIC (Streptococcus pneumoniae [20]): 8 µg/mL (≈ 21.3 µM); MIC (Streptococcus pneumoniae [21]): 4 µg/mL (≈ 10.7 µM); MIC (Streptococcus pneumoniae [22]): 0.5 µg/mL (≈ 1.33 µM); MIC50 (Streptococcus pneumoniae [23]): 0.5 µg/mL (≈ 1.33 µM); MIC90 (Streptococcus pneumoniae [23]): 0.5 µg/mL (≈ 1.33 µM); MIC (Streptococcus pneumoniae [24]): 4 µg/mL (≈ 10.7 µM); MIC (Streptococcus pneumoniae [25]): 4 µg/mL (≈ 10.7 µM); MIC50 (Streptococcus pneumoniae [26]): 0.5 µg/mL (≈ 1.33 µM); MIC90 (Streptococcus pneumoniae [26]): 0.5 µg/mL (≈ 1.33 µM); MIC (Streptococcus pneumoniae [27]): 0.12 µg/mL (≈ 0.32 µM); MIC (Streptococcus pneumoniae [28]): 4 µg/mL (≈ 10.7 µM); MIC (Streptococcus pneumoniae [29]): 16 µg/mL (≈ 42.6 µM); MIC (Streptococcus pneumoniae [30]): 8 µg/mL (≈ 21.3 µM); MIC (Streptococcus pneumoniae [31]): 8 µg/mL (≈ 21.3 µM); MIC (Streptococcus pneumoniae [32]): 0.25 µg/mL (≈ 0.666 µM)
